Experimental findings from patent US12649942B2, “Carotenoids for treating or preventing nausea” (priority 2019, dated 2026) are described below.

In assay [1] the test system is pgp-5p::gfp. The assay can be described thus: pgp-5p::gfp induction in eft-3(q145);pgp-5p::gfp animals (translation deficit). The assay is classed as in vivo, C. elegans. The note with it: vs mock-treated.
In assay [2] the test system is C. elegans. The assay can be described thus: food aversion behavior. The assay is classed as in vivo. The conditions noted are these: for food aversion induced by the drug: in vivo. Here is the method:
In some embodiments, a food aversion assay as described herein is used. In some embodiments, a test sample is, or is derived from (e.g., a sample taken from) an in vivo model of a disorder as described herein. For example, a test compound is applied to a test sample comprising one or more C. elegans organisms, and one or more effects of the test compound is evaluated. For example, the ability of a test compound to counteract food aversion in the presence of a chemotherapeutic agent or other nausea-inducing stimulus can be tested. Alternatively, effects on a reporter gene, e.g., ABC transporter gene fusion pgp-5p::gfp, can be evaluated by detecting alterations in GFP fluorescence. As one of skill in the art will appreciate, other reporters could readily be used.
C. elegans food aversion behaviors are induced when animals are exposed to xenobiotics or essential gene inactivations (Melo and Ruvkun, 2012). […] While ˜40% of animals exposed to 25 μg/ml hygromycin display food aversion behavior, ˜15% of animals exposed to 25 μg/ml hygromycin and K. rhizophila carotenoid extract show aversion (FIG. 3E). Similar results were obtained with cisplatin: ˜50% of animals exposed to 1 mM cisplatin display aversion behavior while <20% of animals exposed to 1 mM cisplatin and K. rhizophila carotenoid extract display food aversion (FIG. 3F).

Assay [3] relates to pgp-5p::gfp. The assay can be described thus: pgp-5p::gfp induction in response to hygromycin, emetine or cisplatin. The assay is classed as in vivo, C. elegans. The note with it: animals fed E. coli OP50; hygromycin 10 μg/ml, emetine 6.25 μg/ml, cisplatin 1 mM.
Procedure: Hygromycin diluted in M9 solution to the desired concentration was added onto E. coli OP50 bacteria containing NGM plates. […] For the xenobiotic experiments, synchronized L1-stage animals were dropped onto the drug containing plates and scored 4 days later.
The mark [4] stands for this setting: animals on E. coli OP50 treated with the substance, screened after 50 hours at 20° C.
The mark [5] stands for this setting: animals fed on E. coli expressing the carotenoid.

`Cc1c(C)c2c(c(C)c1O)CCC(C)(C(=O)O)O2` (stereo not shown) [trolox]: the “induction of pgp-5p::gfp” value in assay [1] (setting [4]) was “not significantly different”.
Take `CC[C@H]1CN2CCc3cc(OC)c(OC)cc3[C@@H]2C[C@@H]1C[C@H]1NCCc2cc(OC)c(OC)cc21` [emetine]: the “food aversion induced by the drug” value in assay [2] is reported as “strong food aversion”.
As for `CC1=C(/C=C/C(C)=C/C=C/C(C)=C/C=C/C=C(C)/C=C/C=C(C)/C=C/C2=C(C)C[C@@H](O)CC2(C)C)C(C)(C)C[C@H](O)C1` [zeaxanthin], the “induction of pgp-5p::gfp” value in assay [1] (setting [5]) is “not significantly different”.
With `CC1=C(/C=C/C(C)=C/C=C/C(C)=C/C=C/C=C(C)/C=C/C=C(C)/C=C/C2=C(C)CCCC2(C)C)C(C)(C)CCC1` [beta-carotene], the “induction of pgp-5p::gfp” value in assay [1] (setting [4]) was “not significantly different”.
Turning to `CC(C)=CCC/C(C)=C/C=C/C(C)=C/C=C/C(C)=C/C=C/C=C(C)/C=C/C=C(\C)CC/C=C(\C)CCC=C(C)C` [neurosporene], the “induction of pgp-5p::gfp” value in assay [1] (setting [5]) is reported as “not significantly different”.
For `N.N.[Cl][Pt][Cl]` [cisplatin], in assay [3], the “pgp-5p::gfp expression induced by the drug” value is “induces pgp-5p::gfp expression”. Besides, in assay [2] (1 mM cisplatin, no extract), the “animals that display aversion behavior” value is given as approximately 50%. The “food aversion induced by the drug” value in assay [2] is on record as “strong food aversion”.
Turning to `CC(=O)N[C@@H](CS)C(=O)O` [N-acetyl cysteine], in assay [1] (setting [4]), the “induction of pgp-5p::gfp” value was “not significantly different”.
In the case of `CC1=CCCC(C)(C)C1/C=C/C(C)=C/C=C/C(C)=C/C=C/C=C(C)/C=C/C=C(C)/C=C/C1=C(C)CCCC1(C)C` (stereo not drawn) [alpha-carotene], the “induction of pgp-5p::gfp” value in assay [1] (setting [5]) is given as “not significantly different”.
For `CC(C)=CCC/C(C)=C/C=C/C(C)=C/C=C/C(C)=C/C=C/C=C(C)/C=C/C=C(C)/C=C/C1C(C)=CCCC1(C)C` (stereo not shown) [delta-carotene], the “induction of pgp-5p::gfp” value in assay [1] (setting [5]) was “not significantly different”.
As for `CC1=C(/C=C/C(C)=C/C=C/C(C)=C/C=C/C=C(C)/C=C/C=C(C)/C=C/C2=C(C)C(=O)[C@@H](O)CC2(C)C)C(C)(C)C[C@H](O)C1=O` [astaxanthin], the “induction of pgp-5p::gfp” value in assay [1] (setting [4]) is given as “not significantly different”.
For the compound `CC(/C=C/C=C(C)/C=C/[C@@]12O[C@]1(C)C[C@@H](O)CC2(C)C)=C\C=C\C=C(C)\C=C\C=C(C)\C=C\[C@@]12O[C@]1(C)C[C@@H](O)CC2(C)C` [violaxanthin], in assay [1] (setting [5]), the “induction of pgp-5p::gfp” value is “not significantly different”.
